Measurements taken from article PMC8222276 (Communications Biology, 2021).

How the values were obtained:
[1] = test system: RAMP1-HUVECs; experiment: cell proliferation (72 h) of RAMP1-HUVECs; format: cell-based, human; conditions: RAMP1-HUVEC
Description: Data are analysed using a three-parameter non-linear regression curve or the operational model of receptor agonism. g–h Signalling bias plots were calculated as ∆Log(τ/KA) (g) or ∆∆Log(τ/KA) (h) for each agonist and for each signalling pathway. […] All data represent mean ± SEM for n repeats.
Both endothelial cell lines and HCMs were seeded at a density of 2500 cells/well in a clear flat bottom 96-well plate (Corning, UK) and incubated at 37 °C in 5% CO2. After 24 h, cells were exposed to test compounds or vehicle, in complete endothelial cell growth media (HUVECs) or myocyte growth media (HCMs). Cells were incubated for a further 72 h at 37 °C in 5% CO2. After 72 h incubation, 5 μl of Cell Counting Kit–8 (CCK-8, Sigma, UK) was added to each well and cells were then incubated for another 2 h at 37 °C in 5% CO2 and in the dark[61]. The absorbance of each well was measured using a Mithras LB940 microplate reader with an excitation of 450 nm. The absorbance is directly proportional to the number of viable cells. Cell proliferation was calculated as a percentage of number of cells treated with vehicle alone.
All sample sizes were determined, and data analysed, in accordance with the guidelines described by Curtis M et al.[65]. All experiments were appropriately controlled using ‘system pathway’ agonists. If any of these pathway controls generated inappropriate responses, then the entire data set was removed from analysis.

[2] = biological target: T1, AM1 receptor (CLR-RAMP2) in HUVECs (Homo sapiens, UniProt O60895+Q16602); experiment: signalling bias analysis (operational model) in HUVECs; conditions: HUVEC; ΔΔLog(τ/KA), reference AM and cAMP
T1 construct: HUVECs specifically express the AM1 receptor alone; host or cells: primary HUVECs
T1 sequence (Q16602 23-461): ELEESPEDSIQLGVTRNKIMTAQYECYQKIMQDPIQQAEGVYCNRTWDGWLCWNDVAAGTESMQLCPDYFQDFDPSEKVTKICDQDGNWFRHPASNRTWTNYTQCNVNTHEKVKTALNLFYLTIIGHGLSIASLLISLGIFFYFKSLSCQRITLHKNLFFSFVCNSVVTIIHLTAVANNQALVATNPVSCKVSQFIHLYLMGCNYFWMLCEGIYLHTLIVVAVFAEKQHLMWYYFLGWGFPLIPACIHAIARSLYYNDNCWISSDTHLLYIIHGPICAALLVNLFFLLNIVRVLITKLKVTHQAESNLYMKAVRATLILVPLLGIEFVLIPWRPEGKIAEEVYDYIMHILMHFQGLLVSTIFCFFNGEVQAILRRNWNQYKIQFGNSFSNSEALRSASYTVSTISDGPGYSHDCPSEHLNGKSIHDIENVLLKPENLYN
T1 sequence (O60895 43-175): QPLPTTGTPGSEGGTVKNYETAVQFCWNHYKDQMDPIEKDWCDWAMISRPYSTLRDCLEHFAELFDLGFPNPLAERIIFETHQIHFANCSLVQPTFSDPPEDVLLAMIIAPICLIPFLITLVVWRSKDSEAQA
Description: All sample sizes were determined, and data analysed, in accordance with the guidelines described by Curtis M et al.[65]. All experiments were appropriately controlled using ‘system pathway’ agonists. If any of these pathway controls generated inappropriate responses, then the entire data set was removed from analysis. […] Data analysis for cAMP accumulation, Ca^2+i mobilisation, NO accumulation, pERK1/2 activation, and cell proliferation assays were performed in GraphPad Prism 8.4 (GraphPad Software, San Diego). Data were fitted to obtain concentration–response curves using either the three-parameter logistic equation using to obtain values of Emax and pEC50 or the operational model of agonism. Statistical differences were analysed using one-way ANOVA followed by Dunnett’s post-hoc (for comparisons amongst more than two groups) or unpaired Student’s t test with Welch’s correction (for comparison between two groups). […] Having obtained values for τ and KA these were then used to quantify signalling bias as the change in Log(τ/KA)[19],[28]. […]

[3] = biological target: T2, CGRP receptor (CLR-RAMP1) in human cardiomyocytes (HCMs) (Homo sapiens, UniProt O60894+Q16602); experiment: cAMP accumulation in HCMs; format: cell-based; conditions: HCM, 30 min, relative to 100 μM forskolin, mean ± SEM
T2 construct: primary human cardiomyocytes (HCMs) since these cells only expressed CLR and RAMP1; host or cells: primary human cardiomyocytes (HCMs)
T2 sequence (Q16602 23-461): as the sequence (Q16602 23-461) above
T2 sequence (O60894 27-148): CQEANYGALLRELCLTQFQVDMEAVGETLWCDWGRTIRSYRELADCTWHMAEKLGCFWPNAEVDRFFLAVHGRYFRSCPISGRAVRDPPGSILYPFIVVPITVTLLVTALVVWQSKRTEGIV
Description: Data are analysed using a three-parameter non-linear regression curve or the operational model of receptor agonism. g, h Signalling bias plots were calculated as ∆Log(τ/KA) (g) or ∆∆Log(τ/KA) (h) for each agonist and for each signalling pathway. […] All data represent mean ± SEM for n repeats.
All primary cell lines were cultured as above. On the day of the experiment media was removed and cells washed with PBS, before being dissociated with Trypsin-EDTA 0.05% (Gibco, UK) and then resuspended in PBS/BSA (0.1%) (Sigma, UK). […] Plates were incubated for a further 60 min (room temperature) and then read on a plate reader (Mithras LB 940 microplate reader (Berthold technologies, Germany)). […]
All sample sizes were determined, and data analysed, in accordance with the guidelines described by Curtis M et al.[65]. […] Statistical differences were analysed using one-way ANOVA followed by Dunnett’s post-hoc (for comparisons amongst more than two groups) or unpaired Student’s t test with Welch’s correction (for comparison between two groups). […] Having obtained values for τ and KA these were then used to quantify signalling bias as the change in Log(τ/KA)[19],[28]. […]

[4] = proliferation, operational model, mean ± SEM

Row | Emax [3] | Compound | Transducer coefficient Log(τ/KA) ([1]; Growth, calculated from Table S2) | promotion of growth ([1]; 72 h) | Emax ([1]; proliferation, 72 h, CCK-8, mean ± SEM) | pEC50 ([1]; proliferation, 72 h, mean ± SEM of 3-6 data sets) | logτ [1, 4] | pKA [1, 4] | agonist bias [2]
1 | – | CSCC[C@H](NC(=O)[C@H](CC(C)C)NC(=O)[C@H](CCC(N)=O)NC(=O)[C@H](Cc1c[nH]c2ccccc12)NC(=O)[C@H](CC(C)C)NC(=O)[C@H](CCCNC(=N)N)NC(=O)[C@H](Cc1c[nH]cn1)NC(=O)[C@H](CO)NC(=O)[C@H](CC(C)C)NC(=O)[C@H](CC(N)=O)NC(=O)[C@H](CCC(N)=O)NC(=O)[C@@H](NC(=O)[C@H](CCC(N)=O)NC(=O)[C@@H]1CSSC[C@H](NC(=O)CNC(=O)[C@@H](NC(=O)[C@H](CCCNC(=N)N)NC(=O)[C@H](CC(C)C)NC(=O)[C@H](CC(C)C)NC(=O)[C@H](CCC(N)=O)NC(=O)[C@H](C)NC(=O)[C@H](CCC(N)=O)NC(=O)[C@@H](N)[C@@H](C)O)C(C)C)C(=O)N[C@@H](C(C)C)C(=O)N[C@@H](CC(C)C)C(=O)NCC(=O)N[C@@H]([C@@H](C)O)C(=O)N1)C(C)C)C(=O)NCC(=O)N1CCC[C@H]1C(=O)N[C@@H](C)C(=O)NCC(=O)N[C@@H](CCCNC(=N)N)C(=O)N[C@@H](CCC(N)=O)C(=O)N[C@@H](CC(=O)O)C(=O)N[C@@H](CO)C(=O)N[C@@H](C)C(=O)N1CCC[C@H]1C(=O)N[C@H](C(=O)N[C@@H](CC(=O)O)C(=O)N1CCC[C@H]1C(=O)N[C@@H](CO)C(=O)N[C@@H](CO)C(=O)N1CCC[C@H]1C(=O)N[C@@H](Cc1c[nH]cn1)C(=O)N[C@@H](CO)C(=O)N[C@@H](Cc1ccc(O)cc1)C(N)=O)C(C)C [AM2, adrenomedullin 2] | 5.73±0.56 | could also promote growth | 201.29±11.45% | 5.85±0.17 | 0.71±0.34 | 5.02±0.44 | biased towards Ca^2+i mobilisation and NO production
2 | 63 ± 3.14% | CC[C@H](C)[C@H](NC(=O)[C@H](CCC(N)=O)NC(=O)[C@H](Cc1c[nH]cn1)NC(=O)[C@H](C)NC(=O)[C@H](CC(C)C)NC(=O)[C@H](CCCCN)NC(=O)[C@H](CCC(N)=O)NC(=O)[C@@H](NC(=O)[C@@H](NC(=O)[C@@H]1CSSC[C@H](NC(=O)CNC(=O)[C@H](Cc2ccccc2)NC(=O)[C@H](CO)NC(=O)[C@H](CCCNC(=N)N)NC(=O)[C@H](CC(C)C)NC(=O)CNC(=O)[C@H](CCC(N)=O)NC(=O)[C@H](Cc2ccccc2)NC(=O)[C@H](CC(N)=O)NC(=O)[C@H](CC(N)=O)NC(=O)[C@H](CCSC)NC(=O)[C@H](CO)NC(=O)[C@H](CCC(N)=O)NC(=O)[C@H](CCCNC(=N)N)NC(=O)[C@@H](N)Cc2ccc(O)cc2)C(=O)N[C@@H](CCCNC(=N)N)C(=O)N[C@@H](Cc2ccccc2)C(=O)NCC(=O)N[C@@H]([C@@H](C)O)C(=O)N1)[C@@H](C)O)C(C)C)C(=O)N[C@@H](Cc1ccc(O)cc1)C(=O)N[C@@H](CCC(N)=O)C(=O)N[C@@H](Cc1ccccc1)C(=O)N[C@H](C(=O)N[C@@H](CC(=O)O)C(=O)N[C@@H](CCCCN)C(=O)N[C@@H](CC(=O)O)C(=O)N[C@@H](CCCCN)C(=O)N[C@@H](CC(=O)O)C(=O)N[C@@H](CC(N)=O)C(=O)N[C@H](C(=O)N[C@@H](C)C(=O)N1CCC[C@H]1C(=O)N[C@@H](CCCNC(=N)N)C(=O)N[C@@H](CO)C(=O)N[C@@H](CCCCN)C(=O)N[C@H](C(=O)N[C@@H](CO)C(=O)N1CCC[C@H]1C(=O)N[C@@H](CCC(N)=O)C(=O)NCC(=O)N[C@@H](Cc1ccc(O)cc1)C(N)=O)[C@@H](C)CC)C(C)C)[C@@H](C)O [AM, adrenomedullin] | – | – | – | – | – | – | –
